Read-outs that look alike come from different tables or passages of the source.
Legend:
[1] = test system: Key Broadleaf Weed and Crop Species; assay: Post-emergent Test II herbicidal activity (Table 5); format: in vivo; conditions: post-emergence, 336 h, 14 days after application; for pest or weed control at 70 g/ha: application rate 70 g ai/ha; for pest or weed control at 140 g/ha: application rate 140 g ai/ha
How it was run: (§1)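 Visual injury ratings (0 = no injury, 100 = complete kill) were taken 14 d after treatment, relative to untreated plants. Seedlings at the first–second true leaf stage received overhead spray at 187 L/ha; the highest rate was serially diluted to ½×, ¼×, ⅛× and 1/16×.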

[2] = test system: Key Grass and Sedge Weeds as well as Grass Crops; assay: Post-emergent Test II herbicidal activity (Table 6); format: in vivo; conditions: post-emergence, 336 h; for pest or weed control at 70 g/ha: 70 g ai/ha; for pest or weed control at 140 g/ha: 140 g ai/ha
How it was run: as §1

[3] = ABUTH: velvetleaf (Abutilon theophrasti), read-out: Visual Growth Reduction (%) 14 Days After Application, ABUTH
[4] = AMARE: redroot pigweed (Amaranthus retroflexus), read-out: Visual Growth Reduction (%) 14 Days After Application, AMARE
[5] = BRSNN: oilseed-rape, canola (Brassica napus), read-out: Visual Growth Reduction (%) 14 Days After Application, BRSNN
[6] = CHEAL: lambsquarters (Chenopodium album), read-out: Visual Growth Reduction (%) 14 Days After Application, CHEAL
[7] = EPHHL: wild poinsettia (Euphorbia heterophylla), read-out: Visual Growth Reduction (%) 14 Days After Application, EPHHL
[8] = HELAN: sunflower (Helianthus annuus), read-out: Visual Growth Reduction (%) 14 Days After Application, HELAN
[9] = VIOTR: wild pansy (Viola tricolor), read-out: Visual Growth Reduction (%) 14 Days After Application, VIOTR
[10] = CYPES: yellow nutsedge (Cyperus esculentus), read-out: Visual Growth Reduction (%) 14 Days After Application, CYPES
[11] = DIGSA: crabgrass (Digitaria sanguinalis), read-out: Visual Growth Reduction (%) 14 Days After Application, DIGSA
[12] = ECHCG: barnyardgrass (Echinochloa crus-galli), read-out: Visual Growth Reduction (%) 14 Days After Application, ECHCG
[13] = ORYSA: rice (Oryza sativa), crop, read-out: Visual Growth Reduction (%) 14 Days After Application, ORYSA
[14] = SETFA: giant foxtail (Setaria faberi), read-out: Visual Growth Reduction (%) 14 Days After Application, SETFA
[15] = SORVU: grain sorghum (Sorghum vulgare), read-out: Visual Growth Reduction (%) 14 Days After Application, SORVU
[16] = TRZSS (wheat, Triticum aestivum), crop, read-out: Visual Growth Reduction (%) 14 Days After Application, TRZSS
[17] = ZEAMX: maize, corn (Zea mays), crop, read-out: Visual Growth Reduction (%) 14 Days After Application, ZEAMX

Nc1c(F)c(-c2ccc(Br)cc2)nc(C(=O)O)c1Cl [Compound 20]
pest or weed control at 70 g/ha [1, 3]: 95 to 100%
pest or weed control at 140 g/ha [1, 3]: 95 to 100%
pest or weed control at 70 g/ha [1, 4]: 95 to 100%
pest or weed control at 140 g/ha [1, 4]: 95 to 100%
pest or weed control at 70 g/ha [1, 5]: 95 to 100%
pest or weed control at 140 g/ha [1, 5]: 95 to 100%
pest or weed control at 70 g/ha [1, 6]: 95 to 100%
pest or weed control at 140 g/ha [1, 6]: 95 to 100%
pest or weed control at 70 g/ha [1, 7]: 95 to 100%
pest or weed control at 140 g/ha [1, 7]: 95 to 100%
pest or weed control at 70 g/ha [1, 8]: 95 to 100%
pest or weed control at 140 g/ha [1, 8]: 95 to 100%
pest or weed control at 70 g/ha [1, 9]: 95 to 100%
pest or weed control at 140 g/ha [1, 9]: 95 to 100%
pest or weed control at 70 g/ha [2, 10]: 95 to 100%
pest or weed control at 140 g/ha [2, 10]: 95 to 100%
pest or weed control at 70 g/ha [2, 11]: 95 to 100%
pest or weed control at 140 g/ha [2, 11]: 95 to 100%
pest or weed control at 70 g/ha [2, 12]: 95 to 100%
pest or weed control at 140 g/ha [2, 12]: 95 to 100%
pest or weed control at 70 g/ha [2, 13]: 60 to 74%
pest or weed control at 140 g/ha [2, 13]: 60 to 74%
pest or weed control at 70 g/ha [2, 14]: 95 to 100%
pest or weed control at 140 g/ha [2, 14]: 95 to 100%
pest or weed control at 70 g/ha [2, 15]: 95 to 100%
pest or weed control at 140 g/ha [2, 15]: 95 to 100%
pest or weed control at 70 g/ha [2, 16]: 75 to 84%
pest or weed control at 140 g/ha [2, 16]: 75 to 84%
pest or weed control at 70 g/ha [2, 17]: 95 to 100%
pest or weed control at 140 g/ha [2, 17]: 95 to 100%
